Assay results from patent US10745663B2, “Methods for modulating production profiles of recombinant proteins” (ARES TRADING S.A., priority 2015, dated 2020).
Where two headings read alike, the source gives them in different places.

How the values were obtained:
[1] = test system: CHO-K1 cells expressing IgG1 mAb2; format: cell-based, Chinese hamster
Description: (§1) Assays were performed with 2 CHO cell lines: • CHO-S cells expressing IgG1 mAb1, herein “Cells mAb1” or “mAb1 cells”. “mAb1” is a fully human monoclonal antibody directed against a soluble protein. Its isoelectric point (pI) is about 8.20-8.30. • CHO-K1 cells expressing IgG1 mAb2, herein “Cells mAb2” or “mAb2 cells”. “mAb2” is a humanised monoclonal antibody directed against a receptor found on the cell membrane. Its isoelectric point (pI) is about 9.30.
(§2) Cells expressing mAb2 were inoculated at 0.2×10^6 cells per milliliter (mL), whereas cells expressing mAb1 were inoculated at 0.3×10^6 cells per mL.
(§3) All assays were performed in fed-batch culture. The host cells were cultured in fed-batch system either in microplates (“Deep well plate”) or in Spin Tubes®, and incubated at 36.5° C., 90% relative humidity, 5% CO2 and 320 rpm shaking during 14 days.
(§4) Viable cell density and viability were measured with the Guava easyCyte® flow cytometer or with the ViCell.
(§5) Antibody titres were measured either with the fortéBIO Octet® or with Biacore C®.
(§6) Glycosylation profiles were established by capillary gel electrophoresis with laser-induced fluorescence (CGE-LIF). Dosages of aggregates and fragments were performed respectively via Size Exclusion High Performance Liquid Chromatography (SE-HPLC) and via SDS-capillary gel electrophoresis.
(§7) The efficacy of DIDS was also tested in Spin tubes at concentrations around 40 μM (41 μM) and/or around 85 μM (82 μM for mAb1 and 87 μM for mAb2). These concentrations are not toxic for the host cells expressing the antibodies mAb1 and mAb2 and allowed to obtain an important increase of the cell density and the titre of the antibody mAb1 (FIG. 3). As expected for the cells expressing the antibody mAb1, the viable cell density and the specific production increase in the presence of DIDS, which allowed at DIDS concentration of 82 μM to multiply the titre by factor 1.4 comparing to the control (FIGS. 3A-3D). […] Similar results are observed for mAb2: DIDS allowed the increase of the specific productivity of the host cells expressing the antibodies mAb2 (about 20% increase at day 10), and is able to maintain the viability of the cells for about 10 days (FIGS. 3E-H).

[2] = test system: CHO-S cells expressing IgG1 mAb1; format: cell-based, Chinese hamster; conditions: Spin tubes
Description: as §1, §2, §3, §4, §5, §6, §7

[3] = test system: CHO-S cells expressing IgG1 mAb1; experiment: Fed-batch cell culture in microplates, cells expressing mAb1, with DIDS; format: cell-based, Chinese hamster
Description: as §1, §2, §3, §4, §5, §6
The host cells expressing the antibody mAb1 were cultured in presence of DIDS at concentrations ranging from 0.4 μM to 83 μM. The cell density and the viability were measured during the culture, whereas the titre was measured on day 14 (FIGS. 1A-1C). Addition of DIDS in the culture medium allowed increase of viable cell density and the titre. Specifically the concentration of 83 μM of DIDS allowed to double the cell density at day 7 (WD7) and to multiply the titre by factor 1.4 at the end of the culture process at day 14 (WD14). The viability was maintained, compared to the control, until day 12.

recombinant CHO cells [4] = conditions: batch culture, end of the production run (after 8 days of culture); cited from earlier work
recombinant CHO cells [5] = conditions: perfusion batch culture, within 6 days of treatment; cited from earlier work
[6] = in the presence of DIDS (41 μM, 82 μM)

| SMILES | toxicity for the host cells expressing mAb2 ([1]; DIDS around 40 μM (41 μM) and/or 87 μM, Spin tubes) | time for which viability of the cells is maintained ([1]; Spin tubes, mAb2 cells) | increase of the specific productivity ([1]; day 10, Spin tubes, mAb2 cells) | titre multiplied by factor ([2]; 82 μM DIDS, comparing to the control) | toxicity for the host cells expressing mAb1 ([2]; DIDS 41 μM and 82 μM) | specific production [2, 6] | viable cell density [2, 6] | cell density ([3]; 83 μM DIDS, day 7 (WD7), microplates, versus control) | titre multiplied by factor ([3]; 83 μM DIDS, end of culture day 14 (WD14), microplates, versus control) | viability ([3]; compared to the control, until day 12, DIDS 0.4 μM to 83 μM) | cell viability (recombinant CHO cells [4]) | cell viability (recombinant CHO cells [5]) |
| --- | --- | --- | --- | --- | --- | --- | --- | --- | --- | --- | --- | --- |
| O=S(=O)([O-])c1cc(N=C=S)ccc1/C=C/c1ccc(N=C=S)cc1S(=O)(=O)[O-].[Na+].[Na+] [DIDS, 4,4′-diisothiocyanostilbene-2,2′-disulfonic acid] | not toxic | about 10 days | about 20% | 1.4 | not toxic | increase | increase | double | 1.4 | maintained |  |  |
| CCCC(=O)[O-].[Na+] [sodium butyrate] |  |  |  |  |  |  |  |  |  |  | less than 45% | 15% |
